In patent US12281149B2, “Modulators of G-protein coupled receptors” (priority 2021, dated 2025):
Like-named read-outs stand apart in the source and are kept apart here. *1 amine or outer side, *2 acyl side, *3 side chain or, on linkers, in order; H or OH if unused. Where a SMILES comes first, the peptide text is derived from it. Side-chain parts run from the residue outwards. [ ]: non-standard residue; d: D form. The star is where a group is joined. Isobutyryl(2-(3-CN-5-F-Ph)) = CC(C)(C(=O)*)c1cc(F)cc(C#N)c1; C20 diacid = O=C(O)CCCCCCCCCCCCCCCCCCC(=O)*; Phenylacetyl(3-Cl) = O=C(Cc1cccc(Cl)c1)*; βPro(3S) = O=C([C@H]1CCN([*:1])C1)[*:2]; X56 = CC(C)(C(=O)*)c1cc(F)cc(C(N)=O)c1; γGlu = O=C(O)[C@H](CCC(=O)[*:2])N[*:1]; X64 = CC(C)(C(=O)*)c1ccccn1; AEEA = NCCOCCOCC(=O)O; Aib = CC(C)(N)C(=O)O; GABA = NCCCC(=O)O; βAla = NCCC(=O)O

Experiments:
Format in all cases: cell-based
GLP-1 receptor [1] = target: T1, GLP-1 receptor (Homo sapiens, UniProt P43220); test: HitHunter cAMP assay, GLP-1 receptor; settings: for Emax: read-out: Emax GLP-1R
GIP receptor [2] = target: T2, GIP receptor (Homo sapiens, UniProt P48546); test: HitHunter cAMP assay, GIP receptor; settings: for Emax: read-out: Emax GIP-1R
T2 sequence (P48546 22-466): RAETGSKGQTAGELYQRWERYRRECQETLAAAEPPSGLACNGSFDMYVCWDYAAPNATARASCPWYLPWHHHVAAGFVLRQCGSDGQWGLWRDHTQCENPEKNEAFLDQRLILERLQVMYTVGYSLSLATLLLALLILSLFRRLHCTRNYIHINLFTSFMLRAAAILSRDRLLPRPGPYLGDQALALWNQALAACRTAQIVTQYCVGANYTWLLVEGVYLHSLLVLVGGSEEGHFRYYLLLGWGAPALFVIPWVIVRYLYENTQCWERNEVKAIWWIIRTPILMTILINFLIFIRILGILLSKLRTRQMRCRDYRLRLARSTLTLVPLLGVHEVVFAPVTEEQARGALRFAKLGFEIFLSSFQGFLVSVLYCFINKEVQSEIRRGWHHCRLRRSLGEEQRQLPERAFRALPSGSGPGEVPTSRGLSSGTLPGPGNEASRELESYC

GIP receptor [3] = target: T2, GIP receptor; test: PathHunter β-arrestin assay, GIP receptor; design: host or cells: PathHunter CHO-K1 GIPR β-Arrestin Cell Line
GLP-1 receptor [4] = target: T1, GLP-1 receptor; test: PathHunter β-arrestin assay, GLP-1 receptor; design: host or cells: PathHunter CHO-K1 GLP1R β-Arrestin Cell Line
[5] = CHO cells stably expressing human GLP-1 receptor, cAMP accumulation, 30 min, read-out: EC50 GLP-1R
[6] = CHO cells, cAMP, normalized to maximum signal from GLP-1 (high) and DMSO (low)
[7] = CHO cells stably expressing GIP receptor, cAMP accumulation, 30 min, read-out: EC50 GIP-1R
[8] = CHO cells, cAMP, normalized to maximum signal from GIP (high) and DMSO (low)
[9] = β-arrestin-2 recruitment, PathHunter CHO-K1 GIPR β-Arrestin Cell Line, 90 min at 37° C., normalized to GIP, read-out: GIPR β Arrestin EC50
[10] = β-arrestin-2 recruitment, PathHunter CHO-K1 GLP1R β-Arrestin Cell Line, 90 min at 37° C., normalized to GLP-1, read-out: GLP-1R β Arrestin EC50

T1 sequence (P43220 24-463): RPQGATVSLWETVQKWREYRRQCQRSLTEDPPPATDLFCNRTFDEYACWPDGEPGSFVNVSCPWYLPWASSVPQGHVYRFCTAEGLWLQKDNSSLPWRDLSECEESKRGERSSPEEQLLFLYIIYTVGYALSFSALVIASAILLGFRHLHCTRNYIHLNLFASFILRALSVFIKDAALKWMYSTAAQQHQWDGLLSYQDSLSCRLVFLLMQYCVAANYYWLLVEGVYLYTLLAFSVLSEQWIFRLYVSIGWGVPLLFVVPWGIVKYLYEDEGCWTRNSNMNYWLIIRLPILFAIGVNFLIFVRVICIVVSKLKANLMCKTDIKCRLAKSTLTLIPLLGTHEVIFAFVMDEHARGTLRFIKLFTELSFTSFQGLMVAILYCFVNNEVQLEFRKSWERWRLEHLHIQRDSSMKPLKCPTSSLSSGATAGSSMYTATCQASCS

| SMILES | EC50 (GLP-1 receptor [1]; [5]) | Emax (GLP-1 receptor [1]; [6]) | EC50 (GIP receptor [2]; [7]) | Emax (GIP receptor [2]; [8]) | EC50 (GIP receptor [3]; [9]) | EC50 (GLP-1 receptor [4]; [10]) | EC50 (GLP-1 receptor [1]) | Emax (GLP-1 receptor [1]; CHO) | EC50 (GIP receptor [2]) | Emax (GIP receptor [2]; CHO) | EC50 (GIP receptor [3]) | EC50 (GLP-1 receptor [4]) |
| --- | --- | --- | --- | --- | --- | --- | --- | --- | --- | --- | --- | --- |
| CC[C@H](C)[C@H](NC(=O)[C@H](CC(C)C)NC(=O)[C@H](Cc1c[nH]c2ccccc12)NC(=O)[C@H](CCC(N)=O)NC(=O)[C@@H](NC(=O)[C@H](Cc1ccccc1)NC(=O)[C@H](C)NC(=O)[C@H](CCCCNC(=O)COCCOCCNC(=O)COCCOCCNC(=O)CC[C@H](NC(=O)CCCCCCCCCCCCCCCCCCC(=O)O)C(=O)O)NC(=O)[C@H](CCC(N)=O)NC(=O)[C@H](C)NC(=O)[C@@H](NC(=O)[C@H](CCCCN)NC(=O)[C@H](CC(=O)O)NC(=O)[C@H](CC(C)C)NC(=O)C(C)(C)NC(=O)[C@@H](NC(=O)[C@H](CO)NC(=O)[C@H](Cc1ccc(O)cc1)NC(=O)[C@H](CC(=O)O)NC(=O)[C@H](CO)NC(=O)[C@@H](NC(=O)[C@H](Cc1ccccc1)NC(=O)[C@@H](NC(=O)CNC(=O)[C@H](CCC(=O)O)NC(=O)CCNC(=O)C(C)(C)c1cc(F)cc(C(N)=O)c1)[C@@H](C)O)[C@@H](C)O)[C@@H](C)CC)[C@@H](C)CC)C(C)C)C(=O)N[C@@H](C)C(=O)NCC(=O)NCC(=O)N1CCC[C@H]1C(=O)N[C@@H](CO)C(=O)N[C@@H](CO)C(=O)NCC(=O)N[C@@H](C)C(=O)N1CCC[C@H]1C(=O)N1CCC[C@H]1C(=O)N1CCC[C@H]1C(=O)N[C@@H](CO)C(N)=O [Compound 159] ({X56-βAla}-EGTFTSDYSI[Aib]LDKIAQK([AEEA-AEEA-γGlu-C20 diacid])AFVQWLIAGGPSSGAPPPS-NH2) | 1 to 10 nM | 100% | 10 to 100 nM | 104% | > 1000 nM | > 1000 nM |  |  |  |  |  |  |
| CC[C@H](C)[C@H](NC(=O)[C@H](CO)NC(=O)[C@H](Cc1ccc(O)cc1)NC(=O)[C@H](CC(=O)O)NC(=O)[C@H](CO)NC(=O)[C@@H](NC(=O)[C@H](Cc1ccccc1)NC(=O)[C@@H](NC(=O)CNC(=O)[C@H](CCC(=O)O)NC(=O)CCNC(=O)[C@]1(c2ccccc2)CNC(=O)C1)[C@@H](C)O)[C@@H](C)O)C(=O)N[C@@H](Cc1ccc(O)cc1)C(=O)N[C@@H](CC(C)C)C(=O)N[C@@H](CC(=O)O)C(=O)N[C@@H](CCCCN)C(=O)N[C@@H](CCCCNC(=O)COCCOCCNC(=O)COCCOCCNC(=O)CC[C@H](NC(=O)CCCCCCCCCCCCCCCCCCC(=O)O)C(=O)O)C(=O)N[C@@H](C)C(=O)N[C@@H](C)C(=O)NC(C)(C)C(=O)N[C@@H](CCC(=O)O)C(=O)N[C@@H](Cc1ccccc1)C(=O)N[C@H](C(=O)N[C@@H](CC(N)=O)C(=O)N[C@@H](Cc1c[nH]c2ccccc12)C(=O)N[C@@H](CC(C)C)C(=O)N[C@@H](CC(C)C)C(=O)N[C@@H](C)C(=O)NCC(=O)NCC(=O)N1CCC[C@H]1C(=O)N[C@@H](CO)C(=O)N[C@@H](CO)C(=O)NCC(=O)N[C@@H](C)C(=O)N1CCC[C@H]1C(=O)N1CCC[C@H]1C(=O)N1CCC[C@H]1C(=O)N[C@@H](CO)C(N)=O)C(C)C (single isomer, unassigned) [Compound 113] | 0.1 to 1 nM | 112% | 1 to 10 nM | 98% | > 1000 nM | > 1000 nM |  |  |  |  |  |  |
| CC[C@H](C)[C@H](NC(=O)[C@H](CC(C)C)NC(=O)[C@H](Cc1c[nH]c2ccccc12)NC(=O)[C@H](CCC(N)=O)NC(=O)[C@@H](NC(=O)[C@H](Cc1ccccc1)NC(=O)[C@H](C)NC(=O)[C@H](CCCCNC(=O)COCCOCCNC(=O)COCCOCCNC(=O)CC[C@H](NC(=O)CCCCCCCCCCCCCCCCCCC(=O)O)C(=O)O)NC(=O)[C@H](CCC(N)=O)NC(=O)[C@H](C)NC(=O)[C@@H](NC(=O)[C@H](CCCCN)NC(=O)[C@H](CC(=O)O)NC(=O)[C@H](CC(C)C)NC(=O)C(C)(C)NC(=O)[C@@H](NC(=O)[C@H](CO)NC(=O)[C@H](Cc1ccc(O)cc1)NC(=O)[C@H](CC(=O)O)NC(=O)[C@H](CO)NC(=O)[C@@H](NC(=O)[C@H](Cc1ccccc1)NC(=O)[C@@H](NC(=O)CNC(=O)[C@H](CCC(=O)O)NC(=O)CCCNC(=O)CNC(=O)Cc1cccc(Cl)c1)[C@@H](C)O)[C@@H](C)O)[C@@H](C)CC)[C@@H](C)CC)C(C)C)C(=O)N[C@@H](C)C(=O)NCC(=O)NCC(=O)N1CCC[C@H]1C(=O)N[C@@H](CO)C(=O)N[C@@H](CO)C(=O)NCC(=O)N[C@@H](C)C(=O)N1CCC[C@H]1C(=O)N1CCC[C@H]1C(=O)N1CCC[C@H]1C(=O)N[C@@H](CO)C(N)=O [Compound 221] ({Phenylacetyl(3-Cl)}-G[GABA]EGTFTSDYSI[Aib]LDKIAQK([AEEA-AEEA-γGlu-C20 diacid])AFVQWLIAGGPSSGAPPPS-NH2) |  |  |  |  |  |  | 10 to 100 nM | 95% | 10 to 100 nM | 95% | > 1000 nM | > 1000 nM |
| CC[C@H](C)[C@H](NC(=O)[C@H](CC(C)C)NC(=O)[C@H](Cc1c[nH]c2ccccc12)NC(=O)[C@H](CCC(N)=O)NC(=O)[C@@H](NC(=O)[C@H](Cc1ccccc1)NC(=O)[C@H](C)NC(=O)[C@H](CCCCNC(=O)COCCOCCNC(=O)COCCOCCNC(=O)CC[C@H](NC(=O)CCCCCCCCCCCCCCCCCCC(=O)O)C(=O)O)NC(=O)[C@H](CCC(N)=O)NC(=O)[C@H](C)NC(=O)[C@@H](NC(=O)[C@H](CCCCN)NC(=O)[C@H](CC(=O)O)NC(=O)[C@H](CC(C)C)NC(=O)C(C)(C)NC(=O)[C@@H](NC(=O)[C@H](CO)NC(=O)[C@H](Cc1ccc(O)cc1)NC(=O)[C@H](CC(=O)O)NC(=O)[C@H](CO)NC(=O)[C@@H](NC(=O)[C@H](Cc1ccccc1)NC(=O)[C@@H](NC(=O)CNC(=O)[C@H](CCC(=O)O)NC(=O)CCNC(=O)C(C)(C)c1ccccn1)[C@@H](C)O)[C@@H](C)O)[C@@H](C)CC)[C@@H](C)CC)C(C)C)C(=O)N[C@@H](C)C(=O)NCC(=O)NCC(=O)N1CCC[C@H]1C(=O)N[C@@H](CO)C(=O)N[C@@H](CO)C(=O)NCC(=O)N[C@@H](C)C(=O)N1CCC[C@H]1C(=O)N1CCC[C@H]1C(=O)N1CCC[C@H]1C(=O)N[C@@H](CO)C(N)=O [Compound 237] ({X64-βAla}-EGTFTSDYSI[Aib]LDKIAQK([AEEA-AEEA-γGlu-C20 diacid])AFVQWLIAGGPSSGAPPPS-NH2) | < 0.1 nM | 93% | 1 to 10 nM | 91% | < 1000 nM | > 1000 nM |  |  |  |  |  |  |
| CC[C@H](C)[C@H](NC(=O)[C@H](CC(C)C)NC(=O)[C@H](Cc1c[nH]c2ccccc12)NC(=O)[C@H](CCC(N)=O)NC(=O)[C@@H](NC(=O)[C@H](Cc1ccccc1)NC(=O)[C@H](C)NC(=O)[C@H](CCCCNC(=O)COCCOCCNC(=O)COCCOCCNC(=O)CC[C@H](NC(=O)CCCCCCCCCCCCCCCCCCC(=O)O)C(=O)O)NC(=O)[C@H](CCC(N)=O)NC(=O)[C@H](C)NC(=O)[C@@H](NC(=O)[C@H](CCCCN)NC(=O)[C@H](CC(=O)O)NC(=O)[C@H](CC(C)C)NC(=O)C(C)(C)NC(=O)[C@@H](NC(=O)[C@H](CO)NC(=O)[C@H](Cc1ccc(O)cc1)NC(=O)[C@H](CC(=O)O)NC(=O)[C@H](CO)NC(=O)[C@@H](NC(=O)[C@H](Cc1ccccc1)NC(=O)[C@@H](NC(=O)CNC(=O)[C@H](CCC(=O)O)NC(=O)[C@H]1CCN(C(=O)C(C)(C)c2cc(F)cc(C#N)c2)C1)[C@@H](C)O)[C@@H](C)O)[C@@H](C)CC)[C@@H](C)CC)C(C)C)C(=O)N[C@@H](C)C(=O)NCC(=O)NCC(=O)N1CCC[C@H]1C(=O)N[C@@H](CO)C(=O)N[C@@H](CO)C(=O)NCC(=O)N[C@@H](C)C(=O)N1CCC[C@H]1C(=O)N1CCC[C@H]1C(=O)N1CCC[C@H]1C(=O)N[C@@H](CO)C(N)=O [Compound 195] ({Isobutyryl(2-(3-CN-5-F-Ph))}-[βPro(3S)]EGTFTSDYSI[Aib]LDKIAQK([AEEA-AEEA-γGlu-C20 diacid])AFVQWLIAGGPSSGAPPPS-NH2) | 100 to 1000 nM | 51% | 100 to 1000 nM | 72% | > 1000 nM | > 1000 nM |  |  |  |  |  |  |
